Marks after values point to notes of the source that are not given here.
What was measured:
[1] = log P by HPLC on reversed-phase column (C 18), EEC Directive 79/831 Annex V.A8; assay type: physicochemical; settings: Table 1, HPLC, 0.1% aqueous formic acid and acetonitrile, 40° C.
Description: In table 1, the log P values were determined in accordance with EEC Directive 79/831 Annex V.A8 by HPLC (High Performance Liquid Chromatography) on a reversed-phase column (C 18), using the method described below: Temperature: 40° C.; Mobile phases: 0.1% aqueous formic acid and acetonitrile; linear gradient from 10% acetonitrile to 90% acetonitrile. Calibration was carried out using unbranched alkan-2-ones (comprising 3 to 16 carbon atoms) with known log P values (determination of the log P values by the retention times using linear interpolation between two successive alkanones). lambda-max-values were determined using UV-spectra from 200 nm to 400 nm and the peak values of the chromatographic signals. In table 2, M+H (Apcl+) and log P are defined as for table 1.

Uromyces appendiculatus = assay: In vivo preventive test on Uromyces appendiculatus (bean rust); settings: for protection: in words, at a dose of 500 and 100 ppm of active ingredient
Description: [table] The active ingredients are made soluble and homogenized in a mixture of Dimethyl sulfoxide/Acetone//Tween® 80 and then diluted in water to the desired concentration. The young plants of bean are treated by spraying the active ingredient prepared as described above. Control plants are treated only with an aqueous solution of Acetone/Dimethyl sulfoxide/Tween® 80. After 24 hours, the plants are contaminated by spraying the leaves with an aqueous suspension of Uromyces appendiculatus spores. The contaminated bean plants are incubated for 24 hours at 20° C. and at 100% relative humidity and then for 10 days at 20° C. and at 70-80% relative humidity. The test is evaluated 11 days after the inoculation. 0% means an efficacy which corresponds to that of the control plants while an efficacy of 100% means that no disease is observed.

Puccinia recondita = assay: In vivo preventive test on Puccinia recondita (brown rust on wheat); settings: for Efficacy: Table C2; for protection: in words, at a dose of 500 and 100 ppm of active ingredient, analogues 11 and 13 in very similar conditions
Description: [table] […] The young plants of wheat are treated by spraying the active ingredient prepared as described above. […] After 24 hours, the plants are contaminated by spraying the leaves with an aqueous suspension of Puccinia recondita spores. The contaminated wheat plants are incubated for 24 hours at 20° C. and at 100% relative humidity and then for 10 days at 20° C. and at 70-80% relative humidity. The test is evaluated 11 days after the inoculation. 0% means an efficacy which corresponds to that of the control plants while an efficacy of 100% means that no disease is observed.

Sphaerotheca fuliginea = assay: In vivo preventive test on Sphaerotheca fuliginea (powdery mildew on cucurbits); settings: for Efficacy: Table F1; for protection: in words, at a dose of 500 and 100 ppm of active ingredient, analogue 13 in very similar conditions
Description: [table] […] The young plants of gherkin are treated by spraying the active ingredient prepared as described above. […] After 24 hours, the plants are contaminated by spraying the leaves with an aqueous suspension of Sphaerotheca fuliginea spores. The contaminated gherkin plants are incubated for 72 hours at 18° C. and at 100% relative humidity and then for 12 days at 20° C. and at 70-80% relative humidity. The test is evaluated 15 days after the inoculation. 0% means an efficacy which corresponds to that of the control plants while an efficacy of 100% means that no disease is observed.

[2] = second value of a mixture of two diastereoisomers
[3] = single value, or first value of a mixture of two diastereoisomers
[4] = dose 100 ppm, formulated in DMF with 2% of alkylarylpolyglycolether
[5] = dose 500 ppm, formulated in DMF with 2% of alkylarylpolyglycolether

| logP [1, 2] | logP [1, 3] | SMILES | Efficacy (Uromyces appendiculatus; Table G2, dose 100 ppm) [%] | Efficacy (Uromyces appendiculatus; Table G2, dose 500 ppm) [%] | protection (Uromyces appendiculatus) | Efficacy (Puccinia recondita; [4]) | Efficacy (Puccinia recondita; [5]) | protection (Puccinia recondita; wheat) | Efficacy (Sphaerotheca fuliginea; [4]) | Efficacy (Sphaerotheca fuliginea; [5]) | protection (Sphaerotheca fuliginea; gherkin) | Efficacy (Puccinia recondita; dose 100 ppm, wheat) [%] | Efficacy (Puccinia recondita; dose 500 ppm, wheat) [%] | Efficacy (Sphaerotheca fuliginea; dose 100 ppm, gherkin) [%] | Efficacy (Sphaerotheca fuliginea; dose 500 ppm, gherkin) [%] | Efficacy (Uromyces appendiculatus; Table G1, dose 100 ppm) [%] | Efficacy (Uromyces appendiculatus; Table G1, dose 500 ppm) [%] | protection (Uromyces appendiculatus; listed as 1.26) |
| --- | --- | --- | --- | --- | --- | --- | --- | --- | --- | --- | --- | --- | --- | --- | --- | --- | --- | --- |
| 3.21 | 2.94 | Cn1cc(C(=O)N2CCCC2C2CCCc3ccccc32)c(C(F)F)n1 (mixture of isomers) [I.27] | 56 | 100 | total to average (at least 50%) protection | – | – | – | – | – | – | – | – | – | – | – | – | – |
| – | – | CC(CN(C(=O)c1c(C(F)F)nn(C)c1F)C1CC1)c1ccccc1 (stereo not shown) [13 from WO-2011/151369, N-cyclopropyl-3-(difluoromethyl)-5-fluoro-1-methyl-N-(2-phenylpropyl)-1H-pyrazole-4-carboxamide, reference compound] | – | – | – | 10 ^(a) % | 40 ^(a) % | poor (less than 40%) to no protection | 3 ^(a) % | 63 ^(a) % | average (at least 60%) to poor (less than 10%) protection | – | – | – | – | – | – | – |
| 3.61 | 3.48 | Cn1nc(C(F)F)c(C(=O)N2CCCC2C2CCCc3ccccc32)c1F (mixture of isomers) [I.26] | 100 | 100 | total protection | – | – | excellent (at least 90%) to high (at least 80%) protection | – | – | total protection | 88 | 98 | 100 | 100 | 100 | 100 | total to average (at least 50%) protection |
| – | – | Cc1nn(C)c(F)c1C(=O)N(C1CC1)C(C)C1CCCc2ccccc21 (stereo not shown) [I.2 from WO-2010/086311, N-cyclopropyl-5-fluoro-1,3-dimethyl-N-[1-(1,2,3,4-tetrahydronaphthalen-1-yl)ethyl]-1H-pyrazole-4-carboxamide, reference compound] | 0 | 88 | high (at least 80%) to no protection | – | – | – | – | – | – | – | – | – | – | – | – | – |

Source: US10626109B2, “N-hetaryl(thio)carbonyl-2-(benzocycloalken-1-yl)cyclamines and their use as fungicides” (BAYER CROPSCIENCE AKTIENGESELLSCHAFT, priority 2013, dated 2020)
